Blank lines part the entries; values can stand above or below the compound they belong to.
Columns and labels:
[1] = target: T1, Inhibitor of nuclear factor kappa-B kinase subunit alpha (Homo sapiens) (UniProt O15111); assay: Selectivity interaction (Kinase panel (Invitrogen)) EUB0000639a CHUK; settings: at 200 nM
T1 sequence (whole entry): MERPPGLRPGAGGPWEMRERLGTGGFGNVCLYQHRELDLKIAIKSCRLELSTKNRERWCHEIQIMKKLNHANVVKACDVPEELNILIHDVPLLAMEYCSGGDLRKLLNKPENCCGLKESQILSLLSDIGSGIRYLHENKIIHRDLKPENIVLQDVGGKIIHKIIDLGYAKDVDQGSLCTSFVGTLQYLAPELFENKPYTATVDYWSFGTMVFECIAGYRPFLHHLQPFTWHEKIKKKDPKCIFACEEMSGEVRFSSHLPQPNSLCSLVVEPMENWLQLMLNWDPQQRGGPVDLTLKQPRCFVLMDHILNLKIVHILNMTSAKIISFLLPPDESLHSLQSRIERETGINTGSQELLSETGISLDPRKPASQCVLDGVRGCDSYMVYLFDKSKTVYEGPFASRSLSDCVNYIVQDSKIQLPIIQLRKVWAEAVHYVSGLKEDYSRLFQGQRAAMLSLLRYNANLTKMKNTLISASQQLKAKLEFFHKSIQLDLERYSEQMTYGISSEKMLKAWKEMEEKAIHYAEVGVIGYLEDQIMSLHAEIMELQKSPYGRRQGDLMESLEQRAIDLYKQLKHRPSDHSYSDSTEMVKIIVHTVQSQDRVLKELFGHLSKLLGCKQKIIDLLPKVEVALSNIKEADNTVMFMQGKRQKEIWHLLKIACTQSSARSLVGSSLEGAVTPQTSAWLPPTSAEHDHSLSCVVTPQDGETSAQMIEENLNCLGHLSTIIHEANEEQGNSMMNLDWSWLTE

[2] = target: Mitogen-activated protein kinase kinase kinase kinase 4 (Homo sapiens, UniProt O95819); assay: Selectivity interaction (ProQinase) EUB0000171b MAP4K4
[3] = test system: Epidermal growth factor receptor (Homo sapiens), P00533 [L861Q]; assay: (§1) Selectivity interaction (KinomeScan (DiscoverX)) EUB0001049a EGFR; settings: at 1 µM
[4] = test system: Epidermal growth factor receptor (Homo sapiens), P00533 [L858R,T790M]; assay: as §1; settings: at 1 µM
[5] = test system: Epidermal growth factor receptor (Homo sapiens), P00533 [L858R]; assay: as §1; settings: at 1 µM
[6] = test system: Epidermal growth factor receptor (Homo sapiens), P00533 [G719S]; assay: as §1; settings: at 1 µM
[7] = target: T2, Dual serine/threonine and tyrosine protein kinase (Homo sapiens) (UniProt Q6XUX3); assay: Selectivity interaction (KinomeScan (DiscoverX)) EUB0001049a DSTYK; settings: at 1 µM
T2 sequence (whole entry): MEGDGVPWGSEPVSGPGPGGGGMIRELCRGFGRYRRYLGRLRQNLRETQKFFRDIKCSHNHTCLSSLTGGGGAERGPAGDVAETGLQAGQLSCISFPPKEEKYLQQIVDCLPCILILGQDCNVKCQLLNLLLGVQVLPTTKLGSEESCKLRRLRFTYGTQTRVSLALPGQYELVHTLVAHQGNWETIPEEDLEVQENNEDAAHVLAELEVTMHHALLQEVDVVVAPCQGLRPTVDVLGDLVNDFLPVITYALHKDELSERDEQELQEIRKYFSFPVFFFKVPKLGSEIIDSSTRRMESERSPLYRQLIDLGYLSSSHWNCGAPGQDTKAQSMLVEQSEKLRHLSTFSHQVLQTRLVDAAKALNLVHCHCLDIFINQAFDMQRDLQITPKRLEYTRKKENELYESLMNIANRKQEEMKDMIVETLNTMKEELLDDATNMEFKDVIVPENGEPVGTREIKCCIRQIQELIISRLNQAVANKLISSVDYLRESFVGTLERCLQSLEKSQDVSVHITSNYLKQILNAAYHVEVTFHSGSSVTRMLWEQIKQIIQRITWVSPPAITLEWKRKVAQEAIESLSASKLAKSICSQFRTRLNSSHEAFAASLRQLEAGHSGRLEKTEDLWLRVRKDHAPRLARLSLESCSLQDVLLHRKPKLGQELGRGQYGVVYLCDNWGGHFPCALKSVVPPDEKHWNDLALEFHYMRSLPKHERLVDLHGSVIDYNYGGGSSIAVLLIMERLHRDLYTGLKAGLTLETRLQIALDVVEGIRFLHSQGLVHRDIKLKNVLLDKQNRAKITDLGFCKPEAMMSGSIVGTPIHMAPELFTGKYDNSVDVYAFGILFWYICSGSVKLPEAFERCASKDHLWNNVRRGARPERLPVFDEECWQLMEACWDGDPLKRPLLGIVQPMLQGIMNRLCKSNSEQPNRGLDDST

[8] = test system: Leucine-rich repeat serine/threonine-protein kinase 2 (Homo sapiens), Q5S007 [G2019S]; assay: (§2) Selectivity interaction (KinomeScan (DiscoverX)) EUB0001079a LRRK2; settings: at 1 µM
[9] = target: Leucine-rich repeat serine/threonine-protein kinase 2 (Homo sapiens, UniProt Q5S007); assay: as §2; settings: at 1 µM
[10] = target: T3, Phosphatidylinositol 5-phosphate 4-kinase type-2 gamma (Homo sapiens) (UniProt Q8TBX8); assay: Selectivity interaction (Kinase panel (KiNativ target engagement assay in Jurkat cells)) EUB0001635a PIP4K2C; type: cell-based; settings: Selectivity number of off-targets 0.0, Selectivity number of targets 233.0, Source Knowledge https://www.sciencedirect.com/science/article/pii/S2451945619300674?via%3Dihub, at 1 µM
T3 sequence (whole entry): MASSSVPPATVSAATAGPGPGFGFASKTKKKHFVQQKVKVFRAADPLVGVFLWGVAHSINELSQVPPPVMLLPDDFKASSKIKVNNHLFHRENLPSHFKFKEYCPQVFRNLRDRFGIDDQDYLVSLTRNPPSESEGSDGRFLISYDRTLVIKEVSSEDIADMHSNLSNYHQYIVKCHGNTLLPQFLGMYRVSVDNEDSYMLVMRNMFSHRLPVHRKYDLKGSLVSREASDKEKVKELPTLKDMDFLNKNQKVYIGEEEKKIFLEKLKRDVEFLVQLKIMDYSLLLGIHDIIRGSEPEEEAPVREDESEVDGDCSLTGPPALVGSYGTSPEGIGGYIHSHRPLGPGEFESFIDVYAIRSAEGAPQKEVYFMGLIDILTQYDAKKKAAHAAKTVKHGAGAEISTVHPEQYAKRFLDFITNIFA

[11] = target: Cyclin-dependent kinase 7 (Homo sapiens, UniProt P50613); assay: Selectivity interaction (KinomeScan (DiscoverX)) EUB0000618a CDK7; settings: at 10 µM
[12] = target: Epithelial discoidin domain-containing receptor 1 (Homo sapiens) (UniProt Q08345); assay: Selectivity interaction (KinomeScan (DiscoverX)) EUB0001619a DDR1; settings: at 1 µM
[13] = target: Serine/threonine-protein kinase 38-like (Homo sapiens) (UniProt Q9Y2H1); assay: Selectivity interaction (ActivX KiNativ screen (ex vivo kinase selectivity in human PBMCs)) EUB0001619a STK38L; type: cell-based; settings: PBMC, at 1 µM
[14] = target: Dual specificity protein kinase CLK1 (Homo sapiens, UniProt P49759); assay: Selectivity interaction (KinomeScan (DiscoverX)) EUB0001619a CLK1; settings: at 1 µM

Mitogen-activated protein kinase kinase kinase kinase 4, sequence (O95819 2-1239 limits assumed): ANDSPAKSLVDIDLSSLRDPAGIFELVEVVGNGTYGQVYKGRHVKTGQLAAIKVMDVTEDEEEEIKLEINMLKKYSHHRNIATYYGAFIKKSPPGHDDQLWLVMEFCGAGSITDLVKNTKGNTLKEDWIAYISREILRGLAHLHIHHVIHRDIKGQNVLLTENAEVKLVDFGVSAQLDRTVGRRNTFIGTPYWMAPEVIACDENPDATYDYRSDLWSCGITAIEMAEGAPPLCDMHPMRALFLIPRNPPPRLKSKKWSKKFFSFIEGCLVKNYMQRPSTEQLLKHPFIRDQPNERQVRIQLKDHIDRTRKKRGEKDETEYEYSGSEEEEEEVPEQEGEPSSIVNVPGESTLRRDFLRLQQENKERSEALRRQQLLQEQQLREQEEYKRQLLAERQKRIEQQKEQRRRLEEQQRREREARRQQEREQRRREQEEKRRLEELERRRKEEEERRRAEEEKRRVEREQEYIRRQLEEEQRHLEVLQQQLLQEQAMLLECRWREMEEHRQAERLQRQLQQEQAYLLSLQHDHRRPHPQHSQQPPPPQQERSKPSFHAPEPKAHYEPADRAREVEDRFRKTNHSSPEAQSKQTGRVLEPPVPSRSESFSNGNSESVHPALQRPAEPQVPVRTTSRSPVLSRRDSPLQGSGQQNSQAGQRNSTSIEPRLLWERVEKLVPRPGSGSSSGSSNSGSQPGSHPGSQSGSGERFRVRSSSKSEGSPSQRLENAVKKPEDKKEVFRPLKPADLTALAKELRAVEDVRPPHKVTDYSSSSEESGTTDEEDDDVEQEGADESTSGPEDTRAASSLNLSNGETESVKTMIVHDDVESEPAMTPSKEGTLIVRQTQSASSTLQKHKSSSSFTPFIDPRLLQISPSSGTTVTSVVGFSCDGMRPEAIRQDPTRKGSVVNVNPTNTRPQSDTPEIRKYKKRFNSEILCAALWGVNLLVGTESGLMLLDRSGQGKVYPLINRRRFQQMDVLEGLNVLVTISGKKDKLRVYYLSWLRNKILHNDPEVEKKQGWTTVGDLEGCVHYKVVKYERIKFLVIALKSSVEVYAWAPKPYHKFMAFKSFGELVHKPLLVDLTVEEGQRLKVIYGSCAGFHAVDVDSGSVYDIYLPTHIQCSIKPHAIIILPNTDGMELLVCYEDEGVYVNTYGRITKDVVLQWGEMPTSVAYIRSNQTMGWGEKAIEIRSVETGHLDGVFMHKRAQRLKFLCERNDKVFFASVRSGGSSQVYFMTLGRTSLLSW
Epidermal growth factor receptor (Homo sapiens), P00533 [L858R,T790M], sequence (P00533 whole entry T790M/L858R, looked up): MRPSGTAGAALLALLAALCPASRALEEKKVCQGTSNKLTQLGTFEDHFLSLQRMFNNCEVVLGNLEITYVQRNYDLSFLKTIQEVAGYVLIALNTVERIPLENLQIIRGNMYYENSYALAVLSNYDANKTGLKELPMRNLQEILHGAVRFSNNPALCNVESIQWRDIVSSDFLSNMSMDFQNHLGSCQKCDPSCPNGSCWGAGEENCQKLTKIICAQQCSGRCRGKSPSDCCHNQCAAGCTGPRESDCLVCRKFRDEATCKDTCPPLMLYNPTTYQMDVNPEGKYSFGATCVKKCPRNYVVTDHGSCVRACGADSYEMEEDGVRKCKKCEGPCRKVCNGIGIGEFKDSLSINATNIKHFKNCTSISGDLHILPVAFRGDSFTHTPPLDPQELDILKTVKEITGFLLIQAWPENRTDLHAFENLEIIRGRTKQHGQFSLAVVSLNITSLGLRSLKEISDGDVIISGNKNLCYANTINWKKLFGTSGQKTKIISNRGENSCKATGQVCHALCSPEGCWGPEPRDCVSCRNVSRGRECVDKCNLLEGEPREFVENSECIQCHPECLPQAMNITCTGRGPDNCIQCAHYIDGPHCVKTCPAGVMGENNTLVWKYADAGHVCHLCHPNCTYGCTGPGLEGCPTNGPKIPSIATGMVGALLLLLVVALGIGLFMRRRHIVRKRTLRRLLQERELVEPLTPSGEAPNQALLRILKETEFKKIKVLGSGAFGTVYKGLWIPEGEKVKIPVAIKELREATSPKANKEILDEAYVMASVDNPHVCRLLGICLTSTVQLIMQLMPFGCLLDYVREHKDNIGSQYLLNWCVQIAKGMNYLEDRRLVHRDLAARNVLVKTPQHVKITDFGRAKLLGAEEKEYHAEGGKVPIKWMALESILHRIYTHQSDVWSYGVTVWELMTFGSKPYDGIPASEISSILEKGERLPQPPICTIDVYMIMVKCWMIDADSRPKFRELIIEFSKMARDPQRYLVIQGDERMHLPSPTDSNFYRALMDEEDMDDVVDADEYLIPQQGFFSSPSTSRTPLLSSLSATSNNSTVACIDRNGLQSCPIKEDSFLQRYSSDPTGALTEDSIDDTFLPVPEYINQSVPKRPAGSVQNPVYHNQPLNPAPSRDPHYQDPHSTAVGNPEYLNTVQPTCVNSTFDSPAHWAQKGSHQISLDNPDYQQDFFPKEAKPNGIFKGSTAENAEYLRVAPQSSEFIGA
Leucine-rich repeat serine/threonine-protein kinase 2, sequence (Q5S007 whole entry): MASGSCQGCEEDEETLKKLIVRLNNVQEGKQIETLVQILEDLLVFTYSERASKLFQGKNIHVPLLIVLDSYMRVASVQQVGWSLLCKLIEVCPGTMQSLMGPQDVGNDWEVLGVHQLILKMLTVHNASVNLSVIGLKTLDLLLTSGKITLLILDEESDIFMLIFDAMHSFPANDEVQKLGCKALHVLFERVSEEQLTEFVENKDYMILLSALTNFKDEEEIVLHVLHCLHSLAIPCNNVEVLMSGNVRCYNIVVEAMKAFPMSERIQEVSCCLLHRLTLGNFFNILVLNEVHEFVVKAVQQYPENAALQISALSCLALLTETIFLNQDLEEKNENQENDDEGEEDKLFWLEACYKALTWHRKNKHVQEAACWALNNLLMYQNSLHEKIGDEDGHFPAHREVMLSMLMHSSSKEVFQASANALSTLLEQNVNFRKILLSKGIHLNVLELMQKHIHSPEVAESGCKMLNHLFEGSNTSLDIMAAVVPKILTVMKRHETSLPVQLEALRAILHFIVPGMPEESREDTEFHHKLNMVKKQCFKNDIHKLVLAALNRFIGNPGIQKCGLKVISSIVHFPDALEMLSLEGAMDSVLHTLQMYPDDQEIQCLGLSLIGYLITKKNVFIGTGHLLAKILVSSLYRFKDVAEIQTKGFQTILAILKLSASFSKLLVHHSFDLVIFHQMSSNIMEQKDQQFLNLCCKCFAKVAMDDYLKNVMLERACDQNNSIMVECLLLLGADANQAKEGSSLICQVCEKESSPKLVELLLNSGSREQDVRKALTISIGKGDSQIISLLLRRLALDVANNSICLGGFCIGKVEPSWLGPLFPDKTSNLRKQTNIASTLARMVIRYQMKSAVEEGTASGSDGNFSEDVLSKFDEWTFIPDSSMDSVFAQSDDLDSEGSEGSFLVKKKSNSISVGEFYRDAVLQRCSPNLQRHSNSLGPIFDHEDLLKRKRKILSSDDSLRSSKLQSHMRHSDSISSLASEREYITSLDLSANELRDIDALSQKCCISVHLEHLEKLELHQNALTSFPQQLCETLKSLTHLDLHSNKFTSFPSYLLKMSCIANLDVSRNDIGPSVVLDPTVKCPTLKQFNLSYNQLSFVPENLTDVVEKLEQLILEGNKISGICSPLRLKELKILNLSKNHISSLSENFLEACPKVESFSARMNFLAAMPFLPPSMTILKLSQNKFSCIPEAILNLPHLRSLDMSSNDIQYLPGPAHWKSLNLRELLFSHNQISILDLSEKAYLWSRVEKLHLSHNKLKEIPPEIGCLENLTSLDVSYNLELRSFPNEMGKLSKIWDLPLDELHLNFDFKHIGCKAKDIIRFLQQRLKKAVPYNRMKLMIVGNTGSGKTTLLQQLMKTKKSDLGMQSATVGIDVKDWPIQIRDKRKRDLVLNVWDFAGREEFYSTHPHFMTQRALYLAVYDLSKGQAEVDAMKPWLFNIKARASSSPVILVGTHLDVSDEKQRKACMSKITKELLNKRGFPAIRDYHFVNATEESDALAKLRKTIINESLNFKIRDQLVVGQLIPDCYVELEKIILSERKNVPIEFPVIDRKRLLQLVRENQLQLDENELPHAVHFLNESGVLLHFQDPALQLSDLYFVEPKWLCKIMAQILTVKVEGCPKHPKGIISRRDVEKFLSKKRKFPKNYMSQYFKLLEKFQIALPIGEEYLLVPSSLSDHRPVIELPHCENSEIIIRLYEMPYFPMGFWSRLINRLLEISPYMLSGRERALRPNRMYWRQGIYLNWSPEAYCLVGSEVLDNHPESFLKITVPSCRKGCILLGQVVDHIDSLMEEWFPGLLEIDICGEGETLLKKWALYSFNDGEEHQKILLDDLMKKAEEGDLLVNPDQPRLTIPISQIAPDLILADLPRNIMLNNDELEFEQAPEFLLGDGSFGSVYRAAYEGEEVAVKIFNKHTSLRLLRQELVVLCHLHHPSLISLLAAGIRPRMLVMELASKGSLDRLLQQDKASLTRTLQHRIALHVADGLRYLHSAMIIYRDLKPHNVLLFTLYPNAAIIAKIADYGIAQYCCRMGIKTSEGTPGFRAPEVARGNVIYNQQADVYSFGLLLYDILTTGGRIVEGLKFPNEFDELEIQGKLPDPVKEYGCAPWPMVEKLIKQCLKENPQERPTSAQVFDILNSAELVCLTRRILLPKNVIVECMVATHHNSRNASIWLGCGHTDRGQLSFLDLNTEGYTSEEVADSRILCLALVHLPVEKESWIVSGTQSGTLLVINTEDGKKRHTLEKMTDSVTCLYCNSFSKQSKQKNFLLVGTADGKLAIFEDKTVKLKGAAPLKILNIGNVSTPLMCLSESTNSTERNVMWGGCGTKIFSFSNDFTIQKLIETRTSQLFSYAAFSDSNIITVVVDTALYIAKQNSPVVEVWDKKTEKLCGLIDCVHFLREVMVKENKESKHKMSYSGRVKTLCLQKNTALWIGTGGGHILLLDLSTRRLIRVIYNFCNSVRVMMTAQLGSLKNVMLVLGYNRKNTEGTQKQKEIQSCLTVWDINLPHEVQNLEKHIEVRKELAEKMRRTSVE
Leucine-rich repeat serine/threonine-protein kinase 2 (Homo sapiens), Q5S007 [G2019S], sequence (Q5S007 whole entry G2019S): as the sequence (Q5S007 whole entry) above, with G2019S counted along it

- % of inhibition [1]: -5.38%
Structure (SMILES): CC[C@@H]1[C@H](F)C(=O)N[C@@H]1COc1nccc2cc(C(N)=O)c(OC)cc12 [ZIMLOVISERTIB]

- % of control ([2]; at 1 µM): 79%
- % of control ([2]; at 5 µM): 55%
Structure (SMILES): C=CC(=O)Nc1cccc(C(=O)Nc2ccc(Nc3cc(-c4[nH]c(SC)nc4C)ccn3)cc2)c1

Structure (SMILES): COc1cc(Nc2nc(C)cc(-c3cnn4nc(OC)ccc34)n2)cc(C(F)(F)F)c1
- % of control [3]: 100%
- % of control [4]: 68%
- % of control [5]: 89%
- % of control [6]: 94%
- % of control [7]: 79%

Structure (SMILES): Nc1cnc(N2CCc3cc(S(=O)(=O)Nc4c(F)cc(Cl)cc4F)cc(N4CCCC4=O)c32)nc1 [TP-020n]
- % of control [8]: 81%
- % of control [9]: 97%

Structure (SMILES): C=CC(=O)Nc1ccc(C(=O)Nc2[nH]nc3c2CN(C(=O)N[C@H](CN(C)C)c2ccccc2)C3(C)C)cc1
- % of engagement [10]: -2.5%

Structure (SMILES): O[C@H]1CC[C@H](Nc2ncc3nc(Nc4c(F)cc(F)cc4F)n([C@H]4CCOC4)c3n2)CC1
- % of control [11]: 100%

Structure (SMILES): N#Cc1cccc(-c2c[nH]c3ncnc(N4CCOCC4)c23)c1
- % of control [12]: 100%
- % of inhibition [13]: 20%
- % of control [14]: 63%

From ChEMBL document CHEMBL5465560, “Selectivity Literature for EUbOPEN Chemogenomic Library” (2024)
